Here are results for 10 compounds from ChEMBL document CHEMBL1201862, “PubChem BioAssay data set” (2004).

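Assay format: 96-well plates, 48-hour exposure. The concentration for 50% growth inhibition is given as GI50.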 Calls of active or inactive are those of the source. Cut-off read from the data, not from the text of the source: active = GI50 up to about 1.1 µM and inactive = higher. Bounds are passed on as bounds.

Some test systems named below: SK-MEL-28; HOP-92; PC-3; SK-MEL-5; TK-10; T47D; NCI/ADR-RES; OVCAR-4; KM12; IGROV-1; HCT-15; UACC-62; HL-60; DU-145; RPMI-8226; LOX IMVI; HT-29; Malme-3M; U-251; Hs-578T.
Assay in all cases: NCI tumour cell line growth inhibition, 48 h

For the compound `CC(=O)C1=C(C)O[C@@H]2O[C@H](COCc3ccccc3)[C@@H](OCc3ccccc3)[C@H](O)[C@@H]2S1`, the GI50 in the assay with SK-MEL-28 is 27.7 µM (inactive); in the assay on HOP-92 it was 22.9 µM (inactive); in the assay on PC-3, 26.2 µM (inactive); in the assay with SK-MEL-5 it was 16.5 µM (inactive); in the assay with TK-10, 19.1 µM (inactive); with T47D it was 5.9 µM (inactive). Further, the GI50 with NCI/ADR-RES was 16.3 µM (inactive); in the assay with OVCAR-4, 24.7 µM (inactive); with KM12 it was 19.6 µM (inactive); in the assay with IGROV-1 it was 21.1 µM (inactive); in the assay on HCT-15, 21.3 µM; with UACC-62, 15.5 µM (inactive). The GI50 in the assay on HL-60 is 16.4 µM (inactive); in the assay with DU-145 it was 20.8 µM (inactive); in the assay on RPMI-8226 it was 17.2 µM (inactive); in the assay with LOX IMVI, 21 µM (inactive); with HT-29, 19.6 µM (inactive); with Malme-3M, 18.3 µM (inactive). The GI50 in the assay on U-251 is 20.8 µM (inactive); in the assay with Hs-578T, 17.9 µM (inactive).

With `Cc1ccc(N2C(=O)C(O)=C(C(=O)C(C)(C)C)C2c2ccc([N+](=O)[O-])cc2)cc1` (stereo not given), the GI50 in the assay on SK-MEL-28 is 21.5 µM (inactive); with HOP-92, 13.7 µM (inactive); with PC-3, 29.9 µM (inactive); in the assay on SK-MEL-5, 15.8 µM (inactive); with TK-10, 36.2 µM (inactive); in the assay on T47D, 18.8 µM (inactive). The GI50 is 19.5 µM (inactive) with NCI/ADR-RES; 6.71 µM (inactive) with OVCAR-4; 16.7 µM (inactive) in the assay on KM12; 11.5 µM (inactive) in the assay on IGROV-1; 16.2 µM in the assay with HCT-15; 14.9 µM (inactive) in the assay on UACC-62. Further, the GI50 in the assay with HL-60 was 12.3 µM (inactive); with DU-145, 28.4 µM (inactive); in the assay with RPMI-8226, 10.9 µM (inactive); with LOX IMVI, 14.9 µM (inactive); in the assay with HT-29, 17.6 µM (inactive); with Malme-3M it was 19 µM (inactive). Further, the GI50 with U-251 was 26.6 µM (inactive); in the assay on Hs-578T it was 16.9 µM (inactive).

`O=C(NNC(=O)c1ccccc1SSc1ccccc1C(=O)NNC(=O)c1ccccc1S)c1ccccc1S`: the GI50 was 24.3 µM (inactive) in the assay on SK-MEL-28; 39.2 µM (inactive) in the assay on HOP-92; 24.6 µM (inactive) in the assay on PC-3; 39.7 µM (inactive) with SK-MEL-5; 51.8 µM (inactive) with TK-10; 9.16 µM (inactive) in the assay with T47D. Also, the GI50 is 20 µM (inactive) with NCI/ADR-RES; 31.1 µM (inactive) in the assay on OVCAR-4; 30.5 µM (inactive) in the assay with KM12; 11.6 µM (inactive) in the assay with IGROV-1; 9.16 µM in the assay on HCT-15; 17.5 µM (inactive) with UACC-62. Moreover, the GI50 in the assay with HL-60 was 1.73 µM (inactive); with DU-145, 6.55 µM (inactive); with RPMI-8226 it was 43.1 µM (inactive); in the assay on LOX IMVI, 11.9 µM (inactive); in the assay on HT-29, 30.3 µM (inactive); in the assay with Malme-3M it was 21.6 µM (inactive). The GI50 with U-251 is 19.5 µM (inactive); in the assay with Hs-578T, 0.404 µM (active).

On to `COc1cc2c(c(O)c1OC)CC1CCC(=O)N1C2c1cccc2ccccc12` (stereo not given), for which the GI50 in the assay with SK-MEL-28 was 21.9 µM (inactive); in the assay on HOP-92 it was 14.1 µM (inactive); with PC-3, 15.6 µM (inactive); in the assay with SK-MEL-5 it was 13.4 µM (inactive); with TK-10, 39.4 µM (inactive); in the assay on T47D it was 18.9 µM (inactive). Besides, the GI50 is 19.4 µM (inactive) in the assay with NCI/ADR-RES; > 10 µM (inactive) in the assay on OVCAR-4; 23.9 µM (inactive) in the assay on KM12; 24 µM (inactive) in the assay with IGROV-1; 24.4 µM with HCT-15; 14.2 µM (inactive) with UACC-62. The GI50 in the assay with HL-60 is 0.813 µM (active); with DU-145, 18.5 µM (inactive); with RPMI-8226, 19.3 µM (inactive); with LOX IMVI, 23 µM (inactive); in the assay with HT-29, 18.2 µM (inactive); in the assay with Malme-3M, 21.8 µM (inactive). In addition, the GI50 was 19.8 µM (inactive) with U-251 and 19.7 µM (inactive) with Hs-578T.

`CC1=CC[C@H](C(C)C)C(C(O)[C@@H](C)O[Si](c2ccccc2)(c2ccccc2)C(C)(C)C)C1=O` (stereo not given in full): the GI50 in the assay with SK-MEL-28 was 32.3 µM (inactive); in the assay on HOP-92, 20.8 µM (inactive); with PC-3 it was 14 µM (inactive); in the assay with SK-MEL-5 it was 16.2 µM (inactive); in the assay with TK-10 it was 15.7 µM (inactive); in the assay with T47D it was 13.2 µM (inactive). For the same compound, the GI50 was 16.7 µM (inactive) with NCI/ADR-RES; 15.5 µM (inactive) in the assay with OVCAR-4; 18.5 µM (inactive) in the assay on KM12; 24.2 µM (inactive) with IGROV-1; 13.9 µM with HCT-15; 14.8 µM (inactive) in the assay on UACC-62. Further, the GI50 in the assay on HL-60 was 16.9 µM (inactive); with DU-145, 21.4 µM (inactive); in the assay with RPMI-8226, 9.73 µM (inactive); with LOX IMVI it was 21.8 µM (inactive); in the assay with HT-29 it was 11.9 µM (inactive); in the assay on Malme-3M, 28.8 µM (inactive). Also, the values for the GI50 in the assay on U-251 and with Hs-578T were 15.8 µM (inactive) and 28 µM (inactive), respectively.

In the case of `Cc1cccc(/C=N/NC(=S)NCCc2ccccn2)n1`, the GI50 in the assay on SK-MEL-28 was 56.1 µM (inactive); with HOP-92 it was 22.3 µM (inactive); in the assay on PC-3 it was 35.2 µM (inactive); with SK-MEL-5, 26.1 µM (inactive); in the assay with TK-10, 71.4 µM (inactive); with T47D, 37.8 µM (inactive). In addition, the GI50 is 31.8 µM (inactive) with NCI/ADR-RES; 42.2 µM (inactive) with OVCAR-4; 36.4 µM (inactive) in the assay with KM12; 20.1 µM (inactive) in the assay with IGROV-1; 26.5 µM in the assay with HCT-15; 22.5 µM (inactive) in the assay with UACC-62. The GI50 with HL-60 was 15.6 µM (inactive); in the assay on DU-145, 22.3 µM (inactive); in the assay with RPMI-8226, > 53.2 µM (inactive); in the assay on LOX IMVI, 18.3 µM (inactive); in the assay on HT-29, 27.9 µM (inactive); in the assay on Malme-3M, 47.6 µM (inactive). The figures for the GI50 in the assay on U-251 and in the assay with Hs-578T were 20.4 µM (inactive) and 53.5 µM (inactive), respectively.

With `Clc1ccc(C2NN=C3c4ccccc4OCC32)cc1` (stereo not given), the GI50 was 15.3 µM (inactive) in the assay on SK-MEL-28; 19.6 µM (inactive) with HOP-92; 4.11 µM (inactive) in the assay on PC-3; 3.01 µM (inactive) in the assay with SK-MEL-5; 22.8 µM (inactive) in the assay on TK-10; 5.83 µM (inactive) in the assay on T47D. Moreover, the GI50 is 2.35 µM (inactive) in the assay on NCI/ADR-RES; 13.4 µM (inactive) in the assay on OVCAR-4; 3.64 µM (inactive) with KM12; 3.2 µM (inactive) with IGROV-1; 3.08 µM with HCT-15; 5.07 µM (inactive) in the assay with UACC-62. The GI50 was 3.15 µM (inactive) in the assay on HL-60; 14.9 µM (inactive) with DU-145; 2.44 µM (inactive) in the assay on RPMI-8226; 8.02 µM (inactive) with LOX IMVI; 3.13 µM (inactive) in the assay on HT-29; 3.15 µM (inactive) with Malme-3M. The figures for the GI50 with U-251 and in the assay with Hs-578T were 4.09 µM (inactive) and 3.2 µM (inactive), respectively.

Regarding `CC(C)(C)c1cc(OCc2nnc3sc(Cc4ccccc4)nn23)c(Cl)cc1OCc1nnc2sc(Cc3ccccc3)nn12`, the GI50 was 24.2 µM (inactive) in the assay on SK-MEL-28; 15.8 µM (inactive) in the assay with HOP-92; 30.1 µM (inactive) in the assay with PC-3; 15.3 µM (inactive) in the assay on SK-MEL-5; 30.1 µM (inactive) in the assay with TK-10; 9.59 µM (inactive) in the assay with T47D. In addition, the GI50 in the assay on NCI/ADR-RES was 76 µM (inactive); in the assay with OVCAR-4, 24.8 µM (inactive); in the assay with KM12 it was 18.8 µM (inactive); in the assay with IGROV-1 it was 22 µM (inactive); with HCT-15 it was 33.4 µM; in the assay on UACC-62, 19.5 µM (inactive). Also, the GI50 in the assay on HL-60 is 23.8 µM (inactive); with DU-145 it was 33 µM (inactive); in the assay on RPMI-8226, 20.7 µM (inactive); in the assay with LOX IMVI, 29.1 µM (inactive); in the assay with HT-29, 22.1 µM (inactive); in the assay with Malme-3M, 19.5 µM (inactive). The figures for the GI50 with U-251 and in the assay with Hs-578T were 13.9 µM (inactive) and > 100 µM (inactive), respectively.

Regarding `C[C@@H]1O[C@@H](O[C@H]2CC[C@]3(C=O)[C@H]4CC[C@]5(C)[C@@H](C6=CC(=O)OC6)CC[C@]5(O)[C@@H]4CC[C@]3(O)C2)[C@H](O)[C@H](O)[C@H]1O` [CONVALLATOXIN], the GI50 is 6.4e-05 µM (active) with SK-MEL-28; 4.83e-05 µM (active) with HOP-92; 2.62e-05 µM (active) in the assay on PC-3; 2.05e-05 µM (active) with SK-MEL-5; 2.88e-05 µM (active) in the assay on TK-10; 5.62e-05 µM (active) in the assay on T47D. Besides, the GI50 in the assay on NCI/ADR-RES was 1.26e-05 µM (active); in the assay on OVCAR-4 it was 7.28e-06 µM (active); with KM12, 8.39e-05 µM (active); with IGROV-1, < 0.01 µM (active); in the assay on HCT-15, 4.69e-05 µM; with UACC-62, 5.85e-05 µM (active). In addition, the GI50 is 3.42e-05 µM (active) in the assay on HL-60; 6.65e-06 µM (active) in the assay on DU-145; 4.45e-05 µM (active) in the assay on RPMI-8226; 2.93e-05 µM (active) with LOX IMVI; 4.78e-05 µM (active) in the assay with HT-29; 3.71e-05 µM (active) with Malme-3M. The figures for the GI50 in the assay on U-251 and in the assay on Hs-578T were 5.58e-05 µM (active) and < 0.01 µM (active), respectively.

For `Cc1ccc2c(c1)C/C(=C\c1ccccc1C(=O)O)C2=O`, the GI50 with SK-MEL-28 is > 100 µM (inactive); with HOP-92 it was > 100 µM (inactive); in the assay with PC-3, > 100 µM (inactive); with SK-MEL-5 it was 52.6 µM (inactive); with TK-10 it was > 100 µM (inactive); with T47D it was > 100 µM (inactive). Besides, the GI50 in the assay with NCI/ADR-RES was > 100 µM (inactive); in the assay with OVCAR-4 it was > 100 µM (inactive); with KM12, > 100 µM (inactive); in the assay on IGROV-1 it was > 100 µM (inactive); in the assay on HCT-15, over 100 µM; with UACC-62 it was > 100 µM (inactive). Besides, the GI50 is > 100 µM (inactive) in the assay on HL-60; > 100 µM (inactive) in the assay with DU-145; 43.7 µM (inactive) in the assay with RPMI-8226; > 100 µM (inactive) in the assay with LOX IMVI; 40.6 µM (inactive) in the assay with HT-29; > 100 µM (inactive) in the assay with Malme-3M. The GI50 in the assay with U-251 and with Hs-578T was > 100 µM (inactive) each time.
